Measurements from paper PMC10304174, “Development of Zeise’s Salt Derivatives Bearing Substituted Acetylsalicylic Acid Substructures as Cytotoxic COX Inhibitors” (Pharmaceutics, 2023).

Experiments:
MCF-7 cells = test: Crystal violet assay, antiproliferative effects in MCF-7 cells; assay type: cell-based; conditions: MCF-7 (COX-negative), 72 h
Procedure: (§1) In order to investigate the cytotoxic effects in MCF-7 and HT-29 cells, an already published crystal violet assay was used. The cells (HT-29: 3 × 10^3 cells per well in 100 µL of medium; MCF-7: 2 × 10^3 cells per well in 100 µL of medium) were seeded in their exponential growth phase in completed DMEM into 96-well microtiter plates in quadruples. […] Cells were then fixed with a solution of 1% (v/v) glutaric dialdehyde in PBS. In order to determine the cell biomass, the chromatin of the attached cells was stained with crystal violet, and the bound dye was extracted with EtOH (70%). The absorbance was measured at 590 nm. Mean values ± SD of ≥2 independent experiments were calculated, and the activity of the complexes was expressed as the cell mass of the vehicle-treated control, which was set to 100%.
(§2) The compounds were investigated regarding their cytotoxicity (in vitro) employing an already published crystal violet assay. It is based on the quantification of the cell biomass of living cells by staining the chromatin. In order to evaluate the possible influence of COX inhibition on cell growth, Zeise’s salt derivatives were investigated comparatively in HT-29 and MCF-7 cell lines.

HT-29 cells = test: Crystal violet assay, antiproliferative effects in HT-29 cells; assay type: cell-based; conditions: HT-29 (COX-1/2-positive), 72 h
Procedure: as §1, §2

[1] = Complex stability by capillary electrophoresis (decrease of initial complex over time); assay type: physicochemical; conditions: MeOH/water (50/50, v/v), 1 mM, 37 °C, CE
Procedure: The analysis was performed as previously described. A 50 mM sodium tetraborate solution (pH = 9.3, adjusted with 1 M NaOH), served as background electrolyte (BGE). Washing of novel capillaries consecutively with 1 M NaOH (45 min), water (45 min), and BGE (45 min) was performed. The hydrodynamic injection mode was utilized to introduce the samples into the capillary (50 mbar for 2 s). The capillary was kept at 25 °C, and the autosampler was thermostatted at 37 °C with an external water bath. For separation, the voltage was set to 20 kV, and the detection was carried out at the wavelength of 230 nm. Before each measurement, flushing of the capillary with 0.1 M NaOH (3 min), water (3 min), and BGE (5 min) took place. The samples were dissolved in methanol (MeOH) and further diluted in equal parts by volume with water to give a final concentration of 1 mM. Triple determinations were performed, and the half-lives (τ½) are presented as mean ± SD of ≥3 independent experiments. Samples, washing solutions, and buffers were filtered through a membrane with 0.22 µm porosity and degassed by ultrasonication before use. To simplify the reaction dynamics from a possible second-order to pseudo-first-order, one of two reactants must be present in great excess (>10 to 25-fold). If this condition is fulfilled, logarithmic plotting of the gradual decrease in the other reactant’s concentration (or increase in the concentration of a product, respectively) against the time yields a straight line, and half-lives can be calculated.
An already-established method was used to study the stability of the X-ASA-Prop-PtCl3 and X-ASA-But-PtCl3 complexes. The degradation products were separated by capillary electrophoresis using a fused-silica capillary ([…] × 75 µm, effective length: 56 cm, capillary temperature: 25 °C) and a 50 mM tetraborate buffer (pH = 9.3) as BGE. For separation, the voltage was set to 20 kV and the compounds were detected at 230 nm. Benzoic acid was used as an internal standard. Exemplary electropherograms of each complex can be found in the Supplementary Material (Figures S1–S24).
The complexes (1 mM) were dissolved in MeOH or MeOH/water (50/50, v/v) and stored at 37 °C. The decrease in the initial amount of complex was monitored time-dependently by CE, and the half-life (τ½) was calculated (Table 2).

Structure (SMILES): CC(=O)Oc1c(C)cccc1C(=O)OCC[CH]1[CH2][Pt-]1([Cl])([Cl])[Cl].[K+] (centres unmarked) [3-CH3-ASA-But-PtCl3, Potassium trichlorido[η^2-(but-3-en-1-yl)-2-acetoxy-3-methylbenzoate]platinate(II)]
- IC50 (MCF-7 cells): 45.6 ± 7.2 µM
- IC50 (HT-29 cells): 18 ± 2.4 µM
- Half-life (τ½) [1]: 45.9 ± 6.0 h

Structure (SMILES): CC(=O)Oc1c(C)cccc1C(=O)OC[CH]1[CH2][Pt-]1([Cl])([Cl])[Cl].[K+] (centres unmarked) [3-CH3-ASA-Prop-PtCl3, Potassium trichlorido[η^2-(prop-2-en-1-yl)-2-acetoxy-3-methylbenzoate]platinate(II)]
- IC50 (MCF-7 cells): 71.4 ± 3.1 µM
- IC50 (HT-29 cells): 27.8 ± 3.4 µM
- Half-life (τ½) [1]: 0.585 ± 0.0383 h

Structure (SMILES): CC(=O)Oc1c(Cl)cccc1C(=O)OCC[CH]1[CH2][Pt-]1([Cl])([Cl])[Cl].[K+] (centres unmarked) [3-Cl-ASA-But-PtCl3, Potassium trichlorido[η^2-(but-3-en-1-yl)-2-acetoxy-3-chlorobenzoate]platinate(II)]
- IC50 (MCF-7 cells): 33.5 ± 1.9 µM
- IC50 (HT-29 cells): 43 ± 10.9 µM
- Half-life (τ½) [1]: 47.0 ± 14.0 h

Structure (SMILES): CC(=O)Oc1c(F)cccc1C(=O)OCC[CH]1[CH2][Pt-]1([Cl])([Cl])[Cl].[K+] (centres unmarked) [3-F-ASA-But-PtCl3, Potassium trichlorido[η^2-(but-3-en-1-yl)-2-acetoxy-3-fluorobenzoate]platinate(II)]
- IC50 (MCF-7 cells): 97.4 ± 17.6 µM
- IC50 (HT-29 cells): 69.4 ± 1.5 µM
- Half-life (τ½) [1]: 51.9 ± 2.5 h

Structure (SMILES): CC(=O)Oc1cc(C)ccc1C(=O)OCC[CH]1[CH2][Pt-]1([Cl])([Cl])[Cl].[K+] (centres unmarked) [4-CH3-ASA-But-PtCl3, Potassium trichlorido[η^2-(but-3-en-1-yl)-2-acetoxy-4-methylbenzoate]platinate(II)]
- IC50 (MCF-7 cells): 38.8 ± 6.5 µM
- IC50 (HT-29 cells): 27.1 ± 1.5 µM
- Half-life (τ½) [1]: 65.7 ± 7.2 h

Structure (SMILES): CC(=O)Oc1cc(F)ccc1C(=O)OCC[CH]1[CH2][Pt-]1([Cl])([Cl])[Cl].[K+] (centres unmarked) [4-F-ASA-But-PtCl3, Potassium trichlorido[η^2-(but-3-en-1-yl)-2-acetoxy-4-fluorobenzoate]platinate(II)]
- IC50 (MCF-7 cells): 105.9 ± 0.4 µM
- IC50 (HT-29 cells): 89.2 ± 3.5 µM
- Half-life (τ½) [1]: 49.9 ± 4.5 h

Structure (SMILES): CC(=O)Oc1ccc(Cl)cc1C(=O)OCC[CH]1[CH2][Pt-]1([Cl])([Cl])[Cl].[K+] (centres unmarked) [5-Cl-ASA-But-PtCl3, Potassium trichlorido[η^2-(but-3-en-1-yl)-2-acetoxy-5-chlorobenzoate]platinate(II)]
- IC50 (MCF-7 cells): 28.2 ± 4.5 µM
- IC50 (HT-29 cells): 49.1 ± 6.2 µM
- Half-life (τ½) [1]: 62.4 ± 1.6 h

Structure (SMILES): CC(=O)Oc1ccc(F)cc1C(=O)OCC[CH]1[CH2][Pt-]1([Cl])([Cl])[Cl].[K+] (centres unmarked) [5-F-ASA-But-PtCl3, Potassium trichlorido[η^2-(but-3-en-1-yl)-2-acetoxy-5-fluorobenzoate]platinate(II)]
- IC50 (MCF-7 cells): 93.8 ± 10.8 µM
- IC50 (HT-29 cells): 75.8 ± 13.2 µM
- Half-life (τ½) [1]: 48.1 ± 4.3 h

Structure (SMILES): CC(=O)Oc1ccc(F)cc1C(=O)OC[CH]1[CH2][Pt-]1([Cl])([Cl])[Cl].[K+] (centres unmarked) [5-F-ASA-Prop-PtCl3, Potassium trichlorido[η^2-(prop-2-en-1-yl)-2-acetoxy-5-fluorobenzoate]platinate(II)]
- IC50 (MCF-7 cells): 106 ± 4.1 µM
- IC50 (HT-29 cells): 110 ± 21.7 µM
- Half-life (τ½) [1]: 0.46 ± 0.02 h

Structure (SMILES): CC(=O)Oc1cccc(C)c1C(=O)OCC[CH]1[CH2][Pt-]1([Cl])([Cl])[Cl].[K+] (centres unmarked) [6-CH3-ASA-But-PtCl3, Potassium trichlorido[η^2-(but-3-en-1-yl)-2-acetoxy-6-methylbenzoate]platinate(II)]
- IC50 (MCF-7 cells): 35.3 ± 0.9 µM
- IC50 (HT-29 cells): 20.2 ± 0.2 µM
- Half-life (τ½) [1]: 35.0 ± 3.7 h

Structure (SMILES): CC(=O)Oc1cccc(C)c1C(=O)OC[CH]1[CH2][Pt-]1([Cl])([Cl])[Cl].[K+] (centres unmarked) [6-CH3-ASA-Prop-PtCl3, Potassium trichlorido[η^2-(prop-2-en-1-yl)-2-acetoxy-6-methylbenzoate]platinate(II)]
- IC50 (MCF-7 cells): 76.2 ± 1.4 µM
- IC50 (HT-29 cells): 27.4 ± 1.4 µM
- Half-life (τ½) [1]: 0.747 ± 0.0183 h

Structure (SMILES): N.N.[Cl][Pt][Cl] [Cisplatin, reference compound]
- IC50 (MCF-7 cells): 3.7 ± 0.3 µM
- IC50 (HT-29 cells): 2.6 ± 0.1 µM
